In patent US20150322001A1, “OMEGA-3 ANALOGUES” (The University of Sydney, priority 2012, published 2015):

Key:
MDA-MB-231 cells [1] = test: Matrigel assay, migration of MDA-MB-231 cells out of matrigel droplets; type: cell-based, human
Description: This supports the finding that these compounds are effective against metastatic cancer cells.
(§1) • 1. Cell culture and cell treatment: Breast cancer MDA-MB-231 cells were maintained in monolayers at 37° C. in DMEM containing penicillin and streptomycin, L-glutamine and 10% fetal bovine serum in an atmosphere of 95% air and 5% CO2. Cells were seeded into multi-well plates at 5×10^4 cells/mL; media was replaced 24 h later with fresh serum-free DMEM containing one of the test compounds in DMSO. DMSO was added to control cells at a final concentration of 0.1%. • 2. MTT assay: MDA-MB-231 cells were seeded in 96 well plates (0.2 mL/well), treated with compounds at 0.01, 0.1, 0.5, 1, 5 and 10 μM for 24 h. […] The blue formazan product formed from MTT by live cells was dissolved in DMSO (100 μL/well) and quantified spectrophotometrically at 540 nm in a multilabel counter. IC50s were calculated using GraphPad Prism (Prism 5.01). • 3. […] Caspase 3 activity was quantified using the Caspase-Glo 3/7 assay kit according to manufacturer's protocol (Promega). […] Cells were equilibrated at room temperature for 30 min, caspase 3/7 substrate in lysis buffer was added and the luminescence was measured. Relative caspase 3/7 activity was calculated as [(luminescence in treatment−luminescence in control)/luminescence in control×100%]. • 4. […]

MDA-MB-231 cells [2] = test: MTT assay, inhibition of proliferation of MDA-MB-231 cells; type: cell-based, human; conditions: Homo sapiens, MTT reduction, 24 h
Description: The synthesized compounds given in Table 1 were tested for their activity in inhibiting the proliferation of MDA-MB-231 cells.
• 1. Cell culture and cell treatment: Breast cancer MDA-MB-231 cells were maintained in monolayers at 37° C. in DMEM containing penicillin and streptomycin, L-glutamine and 10% fetal bovine serum in an atmosphere of 95% air and 5% CO2. Cells were seeded into multi-well plates at 5×10^4 cells/mL; media was replaced 24 h later with fresh serum-free DMEM containing one of the test compounds in DMSO. DMSO was added to control cells at a final concentration of 0.1%. • 2. MTT assay: MDA-MB-231 cells were seeded in 96 well plates (0.2 mL/well), treated with compounds at 0.01, 0.1, 0.5, 1, 5 and 10 μM for 24 h. MTT (25 μL of 2.5 mg/mL solution) was added to each well for 2 h, after which MTT and media were removed. The blue formazan product formed from MTT by live cells was dissolved in DMSO (100 μL/well) and quantified spectrophotometrically at 540 nm in a multilabel counter. IC50s were calculated using GraphPad Prism (Prism 5.01). • 3. Caspase 3 activity: MDA-MB-231 cells were seeded in 96 well plates (0.2 mL/well), and were treated with compounds at 0.1, 0.5 and 1 μM for 24 h. Caspase 3 activity was quantified using the Caspase-Glo 3/7 assay kit according to manufacturer's protocol (Promega). Briefly, after 24 h treatment, fresh serum-free media was added to wells. Cells were equilibrated at room temperature for 30 min, caspase 3/7 substrate in lysis buffer was added and the luminescence was measured. Relative caspase 3/7 activity was calculated as [(luminescence in treatment−luminescence in control)/luminescence in control×100%]. • 4. Annexin V assay: MDA-MB-231 cells were seeded in 6 well plates (3 mL/well), and were treated with compounds at 0.1, 0.5 and 1 μM for 24 h. The apoptotic cells were quantified by Annexin V staining according to the manufacture's protocol (BD Biosciences). Briefly, after 24 h treatment, the media and harvested cells were collected, followed by PBS washes. Cells were stained with Annexin V and PI in binding buffer for 15 min at room temperature and quantified by flow cytometry (BD Biosciences). The apoptotic cells (%) were calculated as [(Annexin V positive cells in treatment−Annexin V positive cells in control)/Annexin V positive cells in control×100%]. • 5. Matrigel assay: MDA-MB-231 cells were trypsinized and resuspended in serum-free DMEM media (3.5×10^6 cells/mL). The cell suspension was mixed 1:1 with Matrigel solution (Bio Scientific). Aliquots (20 μL containing 3.5×10^4 cells) were placed into 6-well tissue-culture dishes to form well-defined droplets and incubated at 37° C. for 5 min to enable semi-solidification. Migration media was freshly made as DMEM containing 20% fetal bovine serum, epidermal growth factor 10 pg/mL, hydrocortisone 0.4 ng/mL, vascular endothelial growth factor (VEGF, 1 pg/mL), basic fibroblast growth factor (bFGF, 20 pg/mL), insulin-like growth factor-1 (40 pg/mL), ascorbic acid (2 ng/mL) and heparin (45 ng/mL). Compounds were added in migration media (3 mL/well) and plates were then incubated for 24 h. Cells that migrated out of droplets were scored using phase-contrast microscopy and digital image analysis (Olympus). • 6. Real-time RT PCR: Cell droplets from migration assays were collected, and total RNA was extracted using Tri Reagent (Astral Scientific) according to the manufacturer's protocol. RNA samples were treated with DNase (Promega) and gene expression was quantified using an Express Onestep Superscript qRT-PCT kit (Invitrogen) and gene-specific primers: heparanase (forward) […] and (reverse) GCAGCAACTTTGGCATTTC, integrin-α3 (forward) […] and (reverse) […], actin (forward) […] and (reverse) […]. The cycling conditions (Roto-Gene™ 6000; Corbett Research) were as follows: 95° C. (15 min); 40 cycles of denaturation (95° C., 30 s); annealing (60° C., 1 min); elongation (72° C., 1 min). […]

MDA-MB-231 cells [3] = test: Annexin V assay (apoptotic cells) in MDA-MB-231 cells; type: cell-based, human; conditions: FIG. 2
Description: (§2) • 1. Cell culture and cell treatment: Breast cancer MDA-MB-231 cells were maintained in monolayers at 37° C. in DMEM containing penicillin and streptomycin, L-glutamine and 10% fetal bovine serum in an atmosphere of 95% air and 5% CO2. Cells were seeded into multi-well plates at 5×10^4 cells/mL; media was replaced 24 h later with fresh serum-free DMEM containing one of the test compounds in DMSO. DMSO was added to control cells at a final concentration of 0.1%. • 2. MTT assay: MDA-MB-231 cells were seeded in 96 well plates (0.2 mL/well), treated with compounds at 0.01, 0.1, 0.5, 1, 5 and 10 μM for 24 h. […] The blue formazan product formed from MTT by live cells was dissolved in DMSO (100 μL/well) and quantified spectrophotometrically at 540 nm in a multilabel counter. IC50s were calculated using GraphPad Prism (Prism 5.01). • 3. […] Caspase 3 activity was quantified using the Caspase-Glo 3/7 assay kit according to manufacturer's protocol (Promega). […] Cells were equilibrated at room temperature for 30 min, caspase 3/7 substrate in lysis buffer was added and the luminescence was measured. Relative caspase 3/7 activity was calculated as [(luminescence in treatment−luminescence in control)/luminescence in control×100%]. • 4. […] The apoptotic cells were quantified by Annexin V staining according to the manufacture's protocol (BD Biosciences). […]

MDA-MB-231 cells [4] = test: Caspase 3 activity (Caspase-Glo 3/7) in MDA-MB-231 cells; type: cell-based, human; conditions: 0.1 μM, FIG. 1
Description: as §2

MCF-7 cells = test: MTT reduction in MCF-7 cells; type: cell-based; conditions: compared with MDA-MB-231
Description: These are also breast cancer cell lines, but are less aggressive than the MDA-MD-231 cells.
as §1

MDA-MB-468 cells = test: MTT reduction in MDA-MB-468 cells; type: cell-based; conditions: compared with MDA-MB-231

| IC50 (MDA-MB-231 cells [1]; Homo sapiens, MDA-MB-231, matrigel assay, read-out: IC50 (concentration at which migration is inhibited to 50% of control)) [nM] | IC50 (MDA-MB-231 cells [2]) [nM] | Compound | Annexin V staining (early apoptosis) (MDA-MB-231 cells [3]) | caspase-3 activity (MDA-MB-231 cells [4]) | migration of cells in the matrigel assay (MDA-MB-231 cells [1]; 10 μM) | inhibition of MTT reduction (MCF-7 cells) | inhibition of MTT reduction (MDA-MB-468 cells) |
| --- | --- | --- | --- | --- | --- | --- | --- |
| 3800 | 750 | Cc1ccc(NC(=O)NCCCCCCCCCCCCCCCC(=O)O)cc1 [Compound 16, 16-{[(4-methylphenyl)carbamoyl]amino}hexadecanoic acid] | increases this substantially | particularly good |  |  |  |
|  | 1800 | CCNC(=O)NCCCCCCCCCCCCCCCC(=O)O [Compound 19, 16-[(ethylcarbamoyl)amino]hexadecanoic acid] |  |  | 61±5 % of control | inhibited MTT reduction | inhibited MTT reduction |
